{
  "source": "patent US12486278B2",
  "about": "“MASP-2 inhibitors and methods of use” (Omeros Corporation, priority 2019, dated 2025)",
  "note": "Where a name gives a salt, the structure may show the parent alone.",
  "data": [
    {"biological_target": "T1, MASP-2 (CCP1-CCP2-SP) (Homo sapiens, UniProt O00187)", "T1 construct": "15 μL of Enzyme MASP-2 (CCP1-CCP2-SP) in Assay Buffer", "T1 sequence (O00187 445-686 limits assumed)": "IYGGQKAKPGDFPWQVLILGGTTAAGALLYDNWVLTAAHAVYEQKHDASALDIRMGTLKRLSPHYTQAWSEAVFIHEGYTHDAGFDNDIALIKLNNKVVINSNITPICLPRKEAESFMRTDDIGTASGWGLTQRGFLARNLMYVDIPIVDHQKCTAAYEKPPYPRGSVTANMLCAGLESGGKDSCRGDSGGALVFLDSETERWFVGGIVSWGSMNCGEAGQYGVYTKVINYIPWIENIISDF", "T1 sequence (O00187 298-444 partner limits assumed)": "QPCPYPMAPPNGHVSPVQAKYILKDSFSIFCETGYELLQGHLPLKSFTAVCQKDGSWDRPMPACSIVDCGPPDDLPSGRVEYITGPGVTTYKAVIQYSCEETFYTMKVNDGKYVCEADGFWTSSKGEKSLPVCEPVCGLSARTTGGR", "assay": "Enzymatic Assay for MASP-2 (fluorogenic substrate)", "assay_type": "biochemical", "conditions": "fluorogenic substrate based on C2 cleavage site; room temperature, 20 min; 20 mM HEPES pH 7.4, 140 mM NaCl, 0.1% Tween 20", "in_short": "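Fluorogenic substrate built on the C2 cleavage site, in 20 mM HEPES pH 7.4, 140 mM NaCl, 0.1% Tween 20, run at room temperature for 20 min before an acetic acid stop. Fluorescence normalised to DMSO-only and no-enzyme controls; IC50 taken as equivalent to Ki, with tight- or slow-binding inhibitors treated separately.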", "units": {"Ki": "µM"}, "values": [
      {"molecule": "C[C@H](NC(=O)[C@H]1C[C@@H](c2cccc(-c3ccccc3)c2)CCN1)C(=O)NCc1ccc(C(=N)N)cc1", "note": "[Compound I-68, (2R,4S)-4-([1,1′-Biphenyl]-3-Yl)-N—((S)-1-((4-Carbamimidoylbenzyl)Amino)-1-Oxopropan-2-Yl)Piperidine-2-Carboxamide Di-Trifluoroacetate]", "Ki": "< 0.5"},
      {"molecule": "C[C@H](NC(=O)[C@H]1C[C@@H](c2ccc(-c3ccccc3)cc2)CCN1)C(=O)NCc1ccc(C(=N)N)cc1", "note": "[Compound I-69, (2R,4S)-4-([1,1′-Biphenyl]-4-Yl)-N—((S)-1-((4-Carbamimidoylbenzyl)Amino)-1-Oxopropan-2-Yl)Piperidine-2-Carboxamide Di-Trifluoroacetate]", "Ki": "< 0.5"},
      {"molecule": "C[C@H](NC(=O)[C@H]1C[C@@H](c2ccc3ccccc3c2)CCN1)C(=O)NCc1ccc(C(=N)N)cc1", "note": "[Compound I-70, (2R,4S)—N—((S)-1-((4-Carbamimidoylbenzyl)Amino)-1-Oxopropan-2-Yl)-4-(Naphthalen-2-Yl)Piperidine-2-Carboxamide Di-Trifluoroacetate]", "Ki": "< 0.5"},
      {"molecule": "C[C@H](NC(=O)[C@H]1C[C@@H](c2cc3ccccc3s2)CCN1)C(=O)NCc1ccc(C(=N)N)cc1", "note": "[Compound I-71, (2R,4S)-4-(Benzo[B]Thiophen-2-Yl)-N—((S)-1-((4-Carbamimidoylbenzyl)Amino)-1-Oxopropan-2-Yl)Piperidine-2-Carboxamide Di-Trifluoroacetate]", "Ki": "< 0.5"},
      {"molecule": "C[C@H](NC(=O)[C@H]1C[C@@H](c2ccc(-c3cccnc3)cc2)CCN1)C(=O)NCc1ccc(C(=N)N)cc1", "note": "[Compound I-72, (2R,4S)—N—((S)-1-((4-Carbamimidoylbenzyl)Amino)-1-Oxopropan-2-Yl)-4-(4-(Pyridin-3-Yl)Phenyl)Piperidine-2-Carboxamide Di-Trifluoroacetate]", "Ki": "< 0.5"},
      {"molecule": "C[C@H](NC(=O)[C@H]1C[C@@H](c2ccc(-c3cccnc3)cc2)CCN1)C(=O)NCc1cc2cnccc2[nH]1", "note": "[Compound I-73, (2R,4S)—N—((S)-1-(((1H-Pyrrolo[3,2-C]Pyridin-2-Yl)Methyl)Amino)-1-Oxopropan-2-Yl)-4-(4-(Pyridin-3-Yl)Phenyl)Piperidine-2-Carboxamide Tri-Trifluoroacetate]", "Ki": "< 0.5"},
      {"molecule": "C[C@H](NC(=O)[C@H]1C[C@@H](c2ccc(-c3ccccc3)cc2)CCN1)C(=O)NCc1cc2cnccc2[nH]1", "note": "[Compound I-74, (2R,4S)—N—((S)-1-(((1H-Pyrrolo[3,2-C]Pyridin-2-Yl)Methyl)Amino)-1-Oxopropan-2-Yl)-4-([1,1′-Biphenyl]-4-Yl)Piperidine-2-Carboxamide Di-Trifluoroacetate]", "Ki": "< 0.5"},
      {"molecule": "Cc1cc(C)n(-c2ccc([C@H]3CCN[C@@H](C(=O)N[C@@H](C)C(=O)NCc4ccc(C(=N)N)cc4)C3)cc2)n1", "note": "[Compound I-75, (2R,4S)—N—((S)-1-((4-Carbamimidoylbenzyl)Amino)-1-Oxopropan-2-Yl)-4-(4-(3,5-Dimethyl-1H-Pyrazol-1-Yl)Phenyl)Piperidine-2-Carboxamide Dihydrochloride]", "Ki": "< 0.5"},
      {"molecule": "C[C@H](NC(=O)[C@H]1C[C@@H](c2ccc(N3CCOCC3)cc2)CCN1)C(=O)NCc1ccc(C(=N)N)cc1", "note": "[Compound I-76, (2R,4S)—N—((S)-1-((4-Carbamimidoylbenzyl)Amino)-1-Oxopropan-2-Yl)-4-(4-Morpholinophenyl)Piperidine-2-Carboxamide Dihydrochloride]", "Ki": "< 0.5"},
      {"molecule": "C[C@H](NC(=O)[C@H]1C[C@@H](c2cccc(-n3cccn3)c2)CCN1)C(=O)NCc1ccc(C(=N)N)cc1", "note": "[Compound I-77, (2R,4S)-4-(3-(1H-Pyrazol-1-Yl)Phenyl)-N—((S)-1-((4-Carbamimidoylbenzyl)Amino)-1-Oxopropan-2-Yl)Piperidine-2-Carboxamide Dihydrochloride]", "Ki": "< 0.5"},
      {"molecule": "Cc1nc(N)ccc1CNC(=O)[C@H](C)NC(=O)[C@H]1C[C@@H](c2cccc(-n3cccn3)c2)CCN1", "note": "[Compound I-78, (2R,4S)-4-(3-(1H-Pyrazol-1-Yl)Phenyl)-N—((S)-1-(((6-Amino-2-Methylpyridin-3-Yl)Methyl)Amino)-1-Oxopropan-2-Yl)Piperidine-2-Carboxamide Dihydrochloride]", "Ki": "< 0.5"},
      {"molecule": "C[C@H](NC(=O)[C@H]1C[C@@H](c2cccc(-n3cccn3)c2)CCN1)C(=O)NCc1cc(Cl)ccc1-n1cnnn1", "note": "[Compound I-79, (2R,4S)-4-(3-(1H-Pyrazol-1-Yl)Phenyl)-N—((S)-1-((5-Chloro-2-(1H-Tetrazol-1-Yl)Benzyl)Amino)-1-Oxopropan-2-Yl)Piperidine-2-Carboxamide Dihydrochloride]", "Ki": "< 0.5"},
      {"molecule": "C[C@H](NC(=O)[C@H]1C[C@@H](c2cccc(-n3cccn3)c2)CCN1)C(=O)NCc1cc2cnccc2[nH]1", "note": "[Compound I-80, (2R,4S)-4-(3-(1H-Pyrazol-1-Yl)Phenyl)-N—((S)-1-(((1H-Pyrrolo[3,2-C]Pyridin-2-Yl)Methyl)Amino)-1-Oxopropan-2-Yl)Piperidine-2-Carboxamide Dihydrochloride]", "Ki": "< 0.5"},
      {"molecule": "Cc1nc(N)ccc1CNC(=O)[C@H](C)NC(=O)[C@H]1C[C@H](Cc2cccc(-c3ccc(F)cc3)c2)CN1", "note": "[Compound I-81, (2R,4S)—N—((S)-1-(((6-Amino-2-Methylpyridin-3-Yl)Methyl)Amino)-1-Oxopropan-2-Yl)-4-((4′-Fluoro-[1,1′-Biphenyl]-3-Yl)Methyl)Pyrrolidine-2-Carboxamide Di-Trifluoroacetate]", "Ki": "< 0.5"},
      {"molecule": "C[C@H](NC(=O)[C@H]1C[C@H](Cc2cccc(Cl)c2)CN1)C(=O)NCc1cnc2[nH]cc(Cl)c2c1", "note": "[Compound I-82, (2R,4S)—N—((S)-1-(((3-Chloro-1H-Pyrrolo[2,3-B]Pyridin-5-Yl)Methyl)Amino)-1-Oxopropan-2-Yl)-4-(3-Chlorobenzyl)Pyrrolidine-2-Carboxamide Dihydrochloride]", "Ki": "< 0.5"},
      {"molecule": "C[C@H](NC(=O)[C@H]1C[C@H](Cc2ccc(Cl)s2)CN1)C(=O)NCc1cnc2[nH]cc(Cl)c2c1", "note": "[Compound I-83, (2R,4R)—N—((S)-1-(((3-Chloro-1H-Pyrrolo[2,3-B]Pyridin-5-Yl)Methyl)Amino)-1-Oxopropan-2-Yl)-4-((5-Chlorothiophen-2-Yl)Methyl)Pyrrolidine-2-Carboxamide Dihydrochloride]", "Ki": "< 0.5"},
      {"molecule": "C[C@H](NC(=O)[C@H]1C[C@H](Cc2ccc(Cl)s2)CN1)C(=O)NCc1cnc2c(c1)c(Cl)cn2C", "note": "[Compound I-84, (2R,4R)—N—((S)-1-(((3-Chloro-1-Methyl-1H-Pyrrolo[2,3-B]Pyridin-5-Yl)Methyl)Amino)-1-Oxopropan-2-Yl)-4-((5-Chlorothiophen-2-Yl)Methyl)Pyrrolidine-2-Carboxamide Dihydrochloride]", "Ki": "< 0.5"},
      {"molecule": "Cc1nc(N)ccc1CNC(=O)[C@H](C)NC(=O)[C@H]1C[C@H](Cc2ccc3c(C)cccc3c2)CN1", "note": "[Compound I-85, (2R,4S)—N—((S)-1-(((6-Amino-2-Methylpyridin-3-Yl)Methyl)Amino)-1-Oxopropan-2-Yl)-4-((5-Methylnaphthalen-2-Yl)Methyl)Pyrrolidine-2-Carboxamide Dihydrochloride]", "Ki": "< 0.5"},
      {"molecule": "Cc1nc(N)ccc1CNC(=O)[C@H](C)NC(=O)[C@H]1C[C@H](Cc2ccc(C#N)s2)CN1", "note": "[Compound I-86, (2R,4R)—N—((S)-1-(((6-Amino-2-Methylpyridin-3-Yl)Methyl)Amino)-1-Oxopropan-2-Yl)-4-((5-Cyanothiophen-2-Yl)Methyl)Pyrrolidine-2-Carboxamide Dihydrochloride]", "Ki": "< 0.5"},
      {"molecule": "Cc1nc(N)ccc1CNC(=O)[C@H](C)NC(=O)[C@H]1C[C@H](Cc2cc(Cl)cs2)CN1", "note": "[Compound I-87, (2R,4R)—N—((S)-1-(((6-Amino-2-Methylpyridin-3-Yl)Methyl)Amino)-1-Oxopropan-2-Yl)-4-((4-Chlorothiophen-2-Yl)Methyl)Pyrrolidine-2-Carboxamide Dihydrochloride]", "Ki": "< 0.5"},
      {"molecule": "Cc1nc(N)ccc1CNC(=O)[C@H](C)NC(=O)[C@H]1C[C@H](Cc2ccc(F)c(Cl)c2F)CN1", "note": "[Compound I-88, (2R,4S)—N—((S)-1-(((6-Amino-2-Methylpyridin-3-Yl)Methyl)Amino)-1-Oxopropan-2-Yl)-4-(3-Chloro-2,4-Difluorobenzyl)Pyrrolidine-2-Carboxamide Dihydrochloride]", "Ki": "< 0.5"},
      {"molecule": "Cc1nc(N)ccc1CNC(=O)[C@H](C)NC(=O)[C@H]1C[C@H](Cc2ccc(C(F)(F)F)s2)CN1", "note": "[Compound I-89, (2R,4R)—N—((S)-1-(((6-Amino-2-Methylpyridin-3-Yl)Methyl)Amino)-1-Oxopropan-2-Yl)-4-((5-(Trifluoromethyl)Thiophen-2-Yl)Methyl)Pyrrolidine-2-Carboxamide Dihydrochloride]", "Ki": "< 0.5"},
      {"molecule": "C[C@H](NC(=O)[C@H]1C[C@@H](c2ccccc2)CCN1)C(=O)NCc1cc2cnccc2[nH]1", "note": "[Compound I-90, (2R,4S)—N—((S)-1-(((1H-Pyrrolo[3,2-C]Pyridin-2-Yl)Methyl)Amino)-1-Oxopropan-2-Yl)-4-Phenylpiperidine-2-Carboxamide Di-Trifluoroacetate]", "Ki": "< 0.5"},
      {"molecule": "C[C@H](NC(=O)[C@H]1C[C@@H](c2ccccc2)CCN1)C(=O)NCc1ccc(C(=N)N)s1", "note": "[Compound I-91, (2R,4S)—N—((S)-1-(((5-carbamimidoylthiophen-2-yl)methyl)amino)-1-oxopropan-2-yl)-4-phenylpiperidine-2-carboxamide di-trifluoroacetate]", "Ki": "< 0.5"},
      {"molecule": "C[C@H](NC(=O)[C@H]1C[C@@H](c2ccccc2)CCN1)C(=O)NCc1ccc(C#N)s1", "note": "[Compound I-92, (2R,4S)—N—((S)-1-(((5-Cyanothiophen-2-yl)methyl)amino)-1-oxopropan-2-yl)-4-phenylpiperidine-2-carboxamide hydrochloride]", "Ki": "2.5 to 10"},
      {"molecule": "C[C@H](NC(=O)[C@H]1C[C@H](c2cccc(CO)c2)CN1)C(=O)NCc1ccc(C(=N)N)cc1", "note": "[Compound I-94, (2R,4R)—N—((S)-1-((4-Carbamimidoylbenzyl)Amino)-1-Oxopropan-2-Yl)-4-(3-(Hydroxymethyl)Phenyl)Pyrrolidine-2-Carboxamide Di-Trifluoroacetate]", "Ki": "< 0.5"}
    ]}
  ]
}
